From patent publication US9247759B2, “Identification of human T2R receptors that respond to bitter compounds that elicit the bitter taste in compositions, and the use thereof in assays to identify compounds that inhibit (block) bitter taste in compositions and use thereof” (SENOMYX, INC., priority 2007, dated 2016)

Columns and labels:
hT2R3 = hT2R3 (Homo sapiens (Human), UniProt Q9NYW6); experiment: hT2R panel inhibition, transient HEK293 G16g44, agonist Chloroquine pH6.5 50 μM; type: cell-based; conditions: HEK293, compound at 25 μM; receptor activated to EC80 with the corresponding agonist; read-out: screening result against bitter receptor 3
Chain of hT2R3 (Q9NYW6 whole entry): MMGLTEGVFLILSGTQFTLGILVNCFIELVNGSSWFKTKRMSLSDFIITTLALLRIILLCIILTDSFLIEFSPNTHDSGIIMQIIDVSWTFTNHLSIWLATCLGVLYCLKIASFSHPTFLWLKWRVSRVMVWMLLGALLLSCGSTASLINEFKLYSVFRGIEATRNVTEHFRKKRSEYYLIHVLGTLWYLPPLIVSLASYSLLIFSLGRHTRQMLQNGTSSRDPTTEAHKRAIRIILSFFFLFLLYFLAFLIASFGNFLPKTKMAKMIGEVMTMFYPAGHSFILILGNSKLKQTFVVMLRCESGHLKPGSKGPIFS
Procedure, shortened: (§1)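 Each human T2R transiently transfected into HEK293 cells stably expressing G16g44; functional receptor assays run with the listed bitter agonist at EC80 concentration. Inhibition recorded as reduction of agonist-induced receptor activity in presence of Compound C.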

hT2R7 = hT2R7 (Homo sapiens (Human), UniProt Q9NYW3); experiment: hT2R panel inhibition, transient HEK293 G16g44, agonist Chloroquine pH6.5 10 mM; type: cell-based; conditions: HEK293, compound at 25 μM; receptor activated to EC80 with the corresponding agonist; read-out: screening result against bitter receptor 7
Chain of hT2R7 (Q9NYW3 whole entry): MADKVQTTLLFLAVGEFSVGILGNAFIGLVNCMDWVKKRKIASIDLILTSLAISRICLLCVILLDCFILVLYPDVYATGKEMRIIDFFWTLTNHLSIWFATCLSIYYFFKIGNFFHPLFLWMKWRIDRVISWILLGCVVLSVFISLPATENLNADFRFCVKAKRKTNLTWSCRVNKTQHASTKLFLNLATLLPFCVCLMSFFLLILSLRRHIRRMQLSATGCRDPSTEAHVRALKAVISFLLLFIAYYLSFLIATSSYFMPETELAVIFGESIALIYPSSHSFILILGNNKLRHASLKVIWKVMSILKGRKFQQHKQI
Procedure, shortened: as §1

hT2R5 = hT2R5 (Homo sapiens (Human), UniProt Q9NYW4); experiment: hT2R panel inhibition, transient HEK293 G16g44, agonist Picoline 10 mM; type: cell-based; conditions: HEK293, compound at 25 μM; receptor activated to EC80 with the corresponding agonist; read-out: screening result against bitter receptor 5
Chain of hT2R5 (Q9NYW4 whole entry): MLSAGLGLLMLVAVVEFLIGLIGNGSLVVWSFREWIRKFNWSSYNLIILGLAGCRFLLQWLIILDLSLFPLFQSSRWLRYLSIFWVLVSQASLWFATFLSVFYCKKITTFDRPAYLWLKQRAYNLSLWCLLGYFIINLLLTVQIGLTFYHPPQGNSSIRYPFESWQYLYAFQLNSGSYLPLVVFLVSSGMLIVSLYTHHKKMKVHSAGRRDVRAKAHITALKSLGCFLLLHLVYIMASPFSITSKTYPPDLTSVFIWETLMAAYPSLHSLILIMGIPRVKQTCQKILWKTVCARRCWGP
Procedure, shortened: as §1

hT2R71 = hT2R71 (Homo sapiens (Human), UniProt P59536); experiment: hT2R panel inhibition, transient HEK293 G16g44, agonist Picric Acid 10 μM; type: cell-based; conditions: HEK293, compound at 25 μM; receptor activated to EC80 with the corresponding agonist; read-out: screening result against bitter receptor 71
Chain of hT2R71 (P59536 whole entry): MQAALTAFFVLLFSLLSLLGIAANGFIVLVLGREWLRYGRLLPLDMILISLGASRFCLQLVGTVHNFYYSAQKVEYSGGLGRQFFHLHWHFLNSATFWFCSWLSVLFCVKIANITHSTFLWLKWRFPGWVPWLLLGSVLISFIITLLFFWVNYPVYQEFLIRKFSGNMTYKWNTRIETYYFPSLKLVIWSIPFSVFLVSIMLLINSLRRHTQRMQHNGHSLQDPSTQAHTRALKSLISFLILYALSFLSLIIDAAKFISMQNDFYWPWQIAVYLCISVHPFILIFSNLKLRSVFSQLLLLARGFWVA
Procedure, shortened: as §1

hT2R14 = hT2R14 (Homo sapiens (Human), UniProt Q9NYV8); experiment: hT2R panel inhibition, transient HEK293 G16g44, agonist Aristolochic Acid 2 μM; type: cell-based; conditions: HEK293, compound at 25 μM; receptor activated to EC80 with the corresponding agonist; read-out: screening result against bitter receptor 14
Chain of hT2R14 (Q9NYV8 whole entry): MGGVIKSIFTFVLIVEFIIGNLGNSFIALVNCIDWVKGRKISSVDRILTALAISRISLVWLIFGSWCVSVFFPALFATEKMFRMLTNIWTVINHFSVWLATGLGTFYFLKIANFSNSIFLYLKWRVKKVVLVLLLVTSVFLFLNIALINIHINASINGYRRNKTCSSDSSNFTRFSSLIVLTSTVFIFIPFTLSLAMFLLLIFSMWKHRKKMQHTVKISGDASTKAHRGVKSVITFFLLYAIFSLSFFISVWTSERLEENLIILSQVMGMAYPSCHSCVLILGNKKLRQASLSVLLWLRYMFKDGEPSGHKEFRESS
Procedure, shortened: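 Each hT2R was transiently transfected into HEK293 cells stably expressing G16g44 and assayed functionally for inhibition of agonist response. Agonists were applied at EC80: andrographolide at 0.5 mM for hT2R8 and aristolochic acid at 2 μM for hT2R14.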

hT2R51 = hT2R51 (Homo sapiens (Human), UniProt P59533); experiment: hT2R panel inhibition, transient HEK293 G16g44, agonist Prop 2.5 μM; type: cell-based; conditions: HEK293, compound at 25 μM; receptor activated to EC80 with the corresponding agonist; read-out: screening result against bitter receptor 51
Chain of hT2R51 (P59533 whole entry): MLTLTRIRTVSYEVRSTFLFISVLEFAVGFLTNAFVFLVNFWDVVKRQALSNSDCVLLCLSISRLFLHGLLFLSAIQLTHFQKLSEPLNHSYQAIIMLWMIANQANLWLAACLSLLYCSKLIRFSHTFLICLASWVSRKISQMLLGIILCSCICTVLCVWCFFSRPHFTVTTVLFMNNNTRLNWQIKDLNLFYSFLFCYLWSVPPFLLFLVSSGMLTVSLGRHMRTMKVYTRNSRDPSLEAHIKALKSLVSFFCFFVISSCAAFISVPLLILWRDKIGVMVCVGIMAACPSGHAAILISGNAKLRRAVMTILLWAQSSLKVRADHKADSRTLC
Procedure: (§2) Specifically, in order to evaluate the inhibitory selectivity of the Compound C compound, this compound was tested against 22 human T2Rs which were deorphaned by Senomyx. These receptors and the bitter ligands that activate these human T2Rs are reported in earlier patent applications which are incorporated by reference herein. These 22 human T2Rs are hT2R1, 3, 4, 5, 7, 8, 9, 10, 13, 14, 16, 44, 51, 54, 55, 61, 63, 64, 65, 67, 71 and 75. The amino acid and nucleic acid sequences of all of these T2Rs may be found in these earlier patent applications. These human T2Rs were each individually transiently transfected into HEK293 cells that stably express the promiscuous G protein G16g44 and functional assays were effected using these receptors as disclosed in these same patent applications. […] The ligands were used at EC80 concentration levels. The list of bitter ligands utilized and the tested ligand concentrations are contained in Table 5 of this example.
(§3) Relating to the foregoing, FIG. 5 contains experimental results wherein Compound C was tested with different agonist compounds. The inhibition activity is represented by the reduction of receptor activity in the presence of Compound C. […] These 13 hT2Rs are hT2R3, 7, 10, 14, 16, 44, 51, 55, 61, 63, 64, 65, and 71.

hT2R10 = hT2R10 (Homo sapiens (Human), UniProt Q9NYW0); experiment: hT2R panel inhibition, transient HEK293 G16g44, agonist Strychnine 50 μM; type: cell-based; conditions: HEK293, read-out: screening result against bitter receptor 10, compound at 25 μM; receptor activated to EC80 with the corresponding agonist
Chain of hT2R10 (Q9NYW0 whole entry): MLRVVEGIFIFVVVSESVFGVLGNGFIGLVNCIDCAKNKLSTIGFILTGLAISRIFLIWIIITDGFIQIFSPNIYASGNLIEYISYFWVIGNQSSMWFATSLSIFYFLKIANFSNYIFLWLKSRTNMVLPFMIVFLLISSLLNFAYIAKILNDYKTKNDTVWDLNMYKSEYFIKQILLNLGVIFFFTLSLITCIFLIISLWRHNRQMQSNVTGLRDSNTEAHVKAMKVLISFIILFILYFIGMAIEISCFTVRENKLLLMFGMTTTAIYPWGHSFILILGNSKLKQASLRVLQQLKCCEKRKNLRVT

hT2R65 = experiment: hT2R panel inhibition, transient HEK293 G16g44, agonist Oleuropein 1 mM; type: cell-based, human; conditions: compound at 25 μM; receptor activated to EC80 with the corresponding agonist
Procedure, shortened: as §1

hT2R16 = hT2R16 (Homo sapiens (Human), UniProt Q9NYV7); experiment: hT2R panel inhibition, transient HEK293 G16g44, agonist Salicin 1 mM; type: cell-based; conditions: HEK293, compound at 25 μM; receptor activated to EC80 with the corresponding agonist; read-out: screening result against bitter receptor 16
Chain of hT2R16 (Q9NYV7 whole entry): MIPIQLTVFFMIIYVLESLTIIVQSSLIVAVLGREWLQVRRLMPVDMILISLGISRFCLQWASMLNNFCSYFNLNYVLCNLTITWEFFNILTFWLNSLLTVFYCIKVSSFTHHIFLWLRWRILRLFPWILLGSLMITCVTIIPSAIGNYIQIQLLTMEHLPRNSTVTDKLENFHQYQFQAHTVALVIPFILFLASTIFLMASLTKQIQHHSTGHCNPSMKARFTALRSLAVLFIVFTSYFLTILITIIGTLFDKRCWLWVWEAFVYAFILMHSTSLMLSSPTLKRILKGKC
Procedure, shortened: as §1

hT2R63 = experiment: hT2R panel inhibition, transient HEK293 G16g44, agonist Caffeine 1 mM or Andrographolide 100 μM; type: cell-based, human; conditions: compound at 25 μM; receptor activated to EC80 with the corresponding agonist
Procedure, shortened: as §1

hT2R64 = hT2R64 (Homo sapiens (Human), UniProt P59538); experiment: hT2R panel inhibition, transient HEK293 G16g44, agonist Aristolochic Acid 1 μM; type: cell-based; conditions: HEK293, compound at 25 μM; receptor activated to EC80 with the corresponding agonist; read-out: screening result against bitter receptor 64
Chain of hT2R64 (P59538 whole entry): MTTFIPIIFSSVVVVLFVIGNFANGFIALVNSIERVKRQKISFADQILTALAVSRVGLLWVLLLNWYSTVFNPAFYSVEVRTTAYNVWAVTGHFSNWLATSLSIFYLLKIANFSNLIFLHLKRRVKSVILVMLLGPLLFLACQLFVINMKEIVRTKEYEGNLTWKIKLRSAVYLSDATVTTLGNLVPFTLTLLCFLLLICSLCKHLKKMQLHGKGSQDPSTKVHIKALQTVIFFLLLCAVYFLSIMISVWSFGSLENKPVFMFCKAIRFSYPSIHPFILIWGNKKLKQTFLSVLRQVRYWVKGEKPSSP
Procedure, shortened: as §1

hT2R54 = experiment: hT2R panel inhibition, transient HEK293 G16g44, agonist Ranitidine 5 mM; type: cell-based, human; conditions: compound at 25 μM; receptor activated to EC80 with the corresponding agonist
Procedure, shortened: as §1

hT2R67 = experiment: hT2R panel inhibition, transient HEK293 G16g44, agonist Andrographolide 5 μM; type: cell-based, human; conditions: compound at 25 μM; receptor activated to EC80 with the corresponding agonist
Procedure, shortened: as §1

hT2R75 = hT2R75 (Homo sapiens (Human), UniProt P59540); experiment: hT2R panel inhibition, transient HEK293 G16g44, agonist Strychnine 1 μM; type: cell-based; conditions: HEK293, read-out: screening result against bitter receptor 75, compound at 25 μM; receptor activated to EC80 with the corresponding agonist
Chain of hT2R75 (P59540 whole entry): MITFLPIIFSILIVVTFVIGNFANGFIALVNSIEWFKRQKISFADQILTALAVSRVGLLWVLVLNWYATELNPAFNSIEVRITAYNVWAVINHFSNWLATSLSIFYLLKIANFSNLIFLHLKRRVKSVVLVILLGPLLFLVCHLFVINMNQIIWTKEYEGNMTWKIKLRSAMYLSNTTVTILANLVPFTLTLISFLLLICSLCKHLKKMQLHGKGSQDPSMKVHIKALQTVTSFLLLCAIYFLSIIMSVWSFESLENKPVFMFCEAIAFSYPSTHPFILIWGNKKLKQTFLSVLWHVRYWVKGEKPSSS
Procedure: as §2, §3

hT2R55 = experiment: hT2R panel inhibition, transient HEK293 G16g44, agonist Cinchonine 150 μM; type: cell-based, human; conditions: compound at 25 μM; receptor activated to EC80 with the corresponding agonist
Procedure, shortened: as §1

hT2R44 = experiment: hT2R panel inhibition, transient HEK293 G16g44, agonist Denatonium 0.5 μM; type: cell-based, human; conditions: compound at 25 μM; receptor activated to EC80 with the corresponding agonist
Procedure, shortened: as §1

hT2R61 = hT2R61 (Homo sapiens (Human), UniProt P59537); experiment: hT2R panel inhibition, transient HEK293 G16g44, agonist Aristolochic Acid 25 nM; type: cell-based; conditions: HEK293, compound at 25 μM; receptor activated to EC80 with the corresponding agonist; read-out: screening result against bitter receptor 61
Chain of hT2R61 (P59537 whole entry): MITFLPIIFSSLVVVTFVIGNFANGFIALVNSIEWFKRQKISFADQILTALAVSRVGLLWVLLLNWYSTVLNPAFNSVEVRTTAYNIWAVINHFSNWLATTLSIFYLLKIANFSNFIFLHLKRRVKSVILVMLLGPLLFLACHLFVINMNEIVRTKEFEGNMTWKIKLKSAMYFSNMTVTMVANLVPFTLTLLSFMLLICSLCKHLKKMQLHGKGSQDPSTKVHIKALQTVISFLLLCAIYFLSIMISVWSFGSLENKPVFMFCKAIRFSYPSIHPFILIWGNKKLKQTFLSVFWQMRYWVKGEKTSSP
Procedure, shortened: as §1

| Structure (SMILES) | inhibition at 25 µM (hT2R3) | inhibition at 25 µM (hT2R7) | inhibition at 25 µM (hT2R5) | inhibition at 25 µM (hT2R71) | inhibition at 25 µM (hT2R14) | inhibition at 25 µM (hT2R51) | inhibition at 25 µM (hT2R10) | screening result against bitter receptor 65 (hT2R65) | inhibition at 25 µM (hT2R16) | screening result against bitter receptor 63 (hT2R63) | inhibition at 25 µM (hT2R64) | screening result against bitter receptor 54 (hT2R54) | screening result against bitter receptor 67 (hT2R67) | inhibition at 25 µM (hT2R75) | screening result against bitter receptor 55 (hT2R55) | screening result against bitter receptor 44 (hT2R44) | inhibition at 25 µM (hT2R61) |
| --- | --- | --- | --- | --- | --- | --- | --- | --- | --- | --- | --- | --- | --- | --- | --- | --- | --- |
| O=C(O)c1ccc(S(=O)(=O)N(Cc2ccccc2)Cc2ccccc2Cl)cc1 [Example 5-83, 4-(N-benzyl-N-(2-chlorobenzyl)sulfamoyl)benzoic acid] | 40 to 60% | 20 to 40% | 20 to 40% | 20 to 40% | > 80% | 20 to 40% | 40 to 60% | +++ (60% to 80% inhibition = +++) | 40 to 60% | +++ (60% to 80% inhibition = +++) | 20 to 40% | ++ (40% to 60% inhibition = ++) | ++ (40% to 60% inhibition = ++) | 40 to 60% | +++ (60% to 80% inhibition = +++) | + (20% to 40% inhibition = +) | > 80% |
| CSc1ccc(CN(Cc2ccccc2)S(=O)(=O)c2ccc(C(=O)O)cc2)cc1 [Example 5-78, 4-(N-benzyl-N-(4-(methylthio)benzyl)sulfamoyl)benzoic acid] | 20 to 40% | – | 20 to 40% | 40 to 60% | > 80% | 20 to 40% | 20 to 40% | +++ (60% to 80% inhibition = +++) | 20 to 40% | +++ (60% to 80% inhibition = +++) | 40 to 60% | + (20% to 40% inhibition = +) | + (20% to 40% inhibition = +) | 20 to 40% | +++ (60% to 80% inhibition = +++) | + (20% to 40% inhibition = +) | > 80% |
| O=C(O)c1ccc(S(=O)(=O)N(Cc2ccccc2)Cc2cccc(Cl)c2)cc1 [Example 5-84, 4-(N-benzyl-N-(3-chlorobenzyl)sulfamoyl)benzoic acid] | 40 to 60% | – | 20 to 40% | 20 to 40% | > 80% | 60 to 80% | 20 to 40% | +++ (60% to 80% inhibition = +++) | 20 to 40% | +++ (60% to 80% inhibition = +++) | 20 to 40% | ++ (40% to 60% inhibition = ++) | + (20% to 40% inhibition = +) | 20 to 40% | +++ (60% to 80% inhibition = +++) | + (20% to 40% inhibition = +) | > 80% |
| COc1ccc(CN(Cc2ccccc2OC)S(=O)(=O)c2ccc(C(=O)O)cc2)cc1 [Example 5-58, 4-(N-(2-methoxybenzyl)-N-(4-methoxybenzyl)sulfamoyl)benzoic acid] | 60 to 80% | 60 to 80% | 20 to 40% | > 80% | > 80% | 20 to 40% | 60 to 80% | ++++ (80% or greater inhibition = ++++) | 20 to 40% | ++++ (80% or greater inhibition = ++++) | 60 to 80% | +++ (60% to 80% inhibition = +++) | + (20% to 40% inhibition = +) | 20 to 40% | +++ (60% to 80% inhibition = +++) | +++ (60% to 80% inhibition = +++) | > 80% |
| COc1ccc(CN(C(C)c2ccccc2)S(=O)(=O)c2ccc(C(=O)O)cc2)cc1 (stereo not drawn) [Example 5-95, 4-(N-(4-methoxybenzyl)-N-(1-phenylethyl)sulfamoyl)benzoic acid] | 40 to 60% | 20 to 40% | 20 to 40% | 40 to 60% | > 80% | 20 to 40% | 20 to 40% | +++ (60% to 80% inhibition = +++) | 40 to 60% | ++++ (80% or greater inhibition = ++++) | 60 to 80% | – | + (20% to 40% inhibition = +) | 20 to 40% | ++++ (80% or greater inhibition = ++++) | +++ (60% to 80% inhibition = +++) | > 80% |
| Cc1cccc(CN(Cc2ccccc2)S(=O)(=O)c2ccc(C(=O)O)cc2)c1 [Example 5-73, 4-(N-benzyl-N-(3-methylbenzyl)sulfamoyl)benzoic acid] | 40 to 60% | 20 to 40% | 20 to 40% | 40 to 60% | > 80% | > 80% | 40 to 60% | ++ (40% to 60% inhibition = ++) | 20 to 40% | ++++ (80% or greater inhibition = ++++) | 20 to 40% | +++ (60% to 80% inhibition = +++) | + (20% to 40% inhibition = +) | 20 to 40% | ++ (40% to 60% inhibition = ++) | – | 60 to 80% |
| COc1ccccc1CN(Cc1ccccc1)S(=O)(=O)c1ccc(C(=O)O)cc1 [Example 5-71, 4-(N-benzyl-N-(2-methoxybenzyl)sulfamoyl)benzoic acid] | 20 to 40% | 20 to 40% | 20 to 40% | 40 to 60% | > 80% | 40 to 60% | 20 to 40% | ++ (40% to 60% inhibition = ++) | 20 to 40% | ++++ (80% or greater inhibition = ++++) | 20 to 40% | +++ (60% to 80% inhibition = +++) | + (20% to 40% inhibition = +) | 20 to 40% | ++ (40% to 60% inhibition = ++) | – | > 80% |
